{
  "source": "patent EP0187551A1",
  "about": "“Pyrazolo[4,3-c]cinnolin-3-one derivatives, their salts, preparation process, use as medicaments, compositions containing them and intermediate products” (ROUSSEL-UCLAF, priority 1985, dated 1986)",
  "key": {"[1]": {"molecular_target": "récepteurs des benzodiazépines", "test": "Affinity for benzodiazepine receptors (displacement of 3H diazepam, rat cortex membranes)", "design": "species or system rats", "conditions": "concentration inhibiting 50 % of specific 3H diazepam (10^-9M) binding, 30 min at 0°C, read-out: CI 50 (the source's name)", "description": "1) Affinité pour les récepteurs des benzodiazépines.\nOn homogénéise au vingtième (poids/volume) dans le sucrose 0,32M, les cortex prélevés sur des cerveaux de rats mâles pesant 150 g en moyenne.\nAprès centrifugation de l'homogénat à 1000 g pendant 10 minutes à 0°C, le surnageant est centrifugé à 30 000 g pendant 20 minutes à +4\"C. Le culot est mis en suspension dans 20 volumes de tampon Tris Hcl 50mM pH 7,4 et centrifugé à 30 000 g pendant 20 minutes à +4°c. Le nouveau culot obtenu est mis en suspension dans 50 ml de tampon Krebs Tris HCl pH 7,4.\nOn fait ensuite incuber pendant 30 minutes à 0°C, 2 ml de suspension en présence de ^3H diazepam à la concentration 10-^9M, seul, avec des concentrations croissantes du produit à tester, ou, pour déterminer la fixation non spécifique, avec du diazepam non radioactif à la concentration 10^-6M.\nLes suspensions incubées sont filtrées sur Whatman GF/C et les filtres sont lavés par deux fois 5 ml de tampon Krebs Tris HCl pH 7,4 à 0°C.\nLa radioactivité des filtres est mesurée par scintillation liquide.\nL'activité du produit est exprimée en C. I. 50 : concentration inhibant 50 % de la liaison spécifique de ^3H diazepam déterminée graphiquement."}, "rats [2]": {"test_system": "rats", "test": "Staircase test (test de l'escalier)", "assay_type": "in vivo", "conditions": "20 mg/Kg, 1 h after administration, counted for 3 min", "from_the_text": "L'appareil et le protocole utilisés ont été décrits par THIEBOT et coll. (Psychopharmacologia (Berlin) 1973, 31, 77).\nL'expérimentation est réalisée sur des lots de 15 rats naifs. Les animaux sont déposés individuellement dans l'enceinte 1 heure après l'administration du composé étudié. Le nombre de redressements effectués et le nombre de marches montées sont comptés pendant 3 mn."}, "souris": {"test_system": "souris", "test": "Four-plate test (test des 4 plaques), mice", "assay_type": "in vivo", "conditions": "1/2 h after administration", "description": "(§1) L'appareil (Apelab) et le protocole utilisés ont été décrits par BOISSIER et coll. (European J. Pharmacol. 1968, 4, 145). Les plaques sont reliées à un stimulateur (U. Sachs, Roucaire) qui permet de délivrer des chocs électriques de 120 volts pendant 0,5 s. Les essais sont réalisés sur des lots de 10 souris ou rats 1/2 h après administration per os du composé étudié. Chaque animal est déposé individuellement sur l'appareil. Après 15s d'exploration libre , il est soumis à un choc électrique chaque fois qu'il passe d'une plaque à l'autre, un minimum de 3 secondes étant observé entre deux chocs. Le nombre de chocs délivrés est compté pendant 1 minute. Les résultats obtenus sont comparés à ceux observés chez des animaux témoins par un test de Dunnett."}, "rats [3]": {"test_system": "rats", "test": "Four-plate test (test des 4 plaques), rats", "assay_type": "in vivo", "conditions": "20 mg/Kg per os, 1/2 h after administration", "description": "as §1"}},
  "data": [
    {"smiles": "O=c1c2n[nH]c3ccc(Cl)cc3c-2nn1-c1ccccc1", "note": "[Exemple 1, 8-chloro-2,5-dihydro-2-phényl 3H-pyrazolo/4,3-c/ cinnolin-3-one]", "values": [
      {"measurement": "IC50", "setting": "[1]", "value": 1.4, "unit": "nM"},
      {"measurement": "diminution du nombre de redressements", "setting": "rats [2]", "value": 46, "unit": "%"},
      {"measurement": "nombre de marches montées", "setting": "rats [2]", "value": "sans modification notable"},
      {"measurement": "augmentation du nombre de chocs délivrés", "setting": "souris; 20 mg/Kg per os", "value": 63, "unit": "%"},
      {"measurement": "augmentation du nombre de chocs délivrés", "setting": "rats [3]", "value": 41, "unit": "%"}
    ]},
    {"smiles": "O=c1c2n[nH]c3ccccc3c-2nn1-c1ccccc1", "note": "[Exemple 3, 2,5-dihydro-2-phényl 3H-pyrazolo/4,3-c/ cinnolin-3-one]", "values": [
      {"measurement": "augmentation du nombre de chocs", "setting": "souris; 50 mg/kg per os", "value": 50, "unit": "%"}
    ]},
    {"smiles": "O=c1c2n[nH]c3ccccc3c-2nn1-c1ccccn1", "note": "[Exemple 8, Chlorhydrate du 2,5-dihydro-(2-pyridin-2-yl) 3H-pyrazolo /4,3-c/ cinnolin-3-one]", "values": [
      {"measurement": "augmentation du nombre de chocs", "setting": "souris; 100 mg/kg per os", "value": 50, "unit": "%"}
    ]}
  ]
}
